Patent publication US20220169632A1, “METHODS AND MATERIALS FOR INCREASING OR MAINTAINING NICOTINAMIDE MONONUCLEOTIDE ADENYLYL TRANSFERASE-2 (NMNAT2) POLYPEPTIDE LEVELS” (University of Pittsburgh - Of the Commonwealth System of …, priority 2019, published 2022)

System: NMNAT2
Experiment: NMNAT2-Hibit nano-luciferase activity in stably transfected U87MG cells, various concentrations, 24 hours
Type: cell-based
Settings: U87MG cells stably transfected with NMNAT2-Hibit luc plasmid
Protocol: Selected compounds were tested in vitro. U87MG cells were stably transfected with NMNAT2-Hibit luc plasmid. Cells were treated with a test compound at various concentrations for 24 hours. Cells were then collected and assayed for nano-luciferase activity.

Structure (SMILES)	E: compound efficacy for NMNAT2 activation (concentration giving >25% increase in NMNAT2 luciferase activity)
Cc1ccc(Cn2cc([C@H]3C[C@@H]3C(=O)NCc3ccccc3C)c3ccccc32)cc1 (racemic) [BC20296]	++ (“++” >25% increase in NMNAT2 luciferase activity at >1 μM ≤25 μM.)
Cc1cccc(Cn2cc(CCCC(=O)NCc3cccnc3)c3ccccc32)c1 [BC20173]	++ (“++” >25% increase in NMNAT2 luciferase activity at >1 μM ≤25 μM.)
COc1cccc(CNC(=O)N2CCc3c(c4ccccc4n3Cc3cccc(F)c3)C2)c1 [BC20310]	+ (“+” >25% increase in NMNAT2 luciferase activity at >25 μM.)
O=C(CCCc1cn(Cc2cccc(F)c2)c2ccccc12)NCCc1ccccc1 [BC20146]	++ (“++” >25% increase in NMNAT2 luciferase activity at >1 μM ≤25 μM.)
Cc1cccc(Cn2cc(CCCC(=O)NCc3ccccc3C)c3ccccc32)c1 [BC20167]	+++ (“+++” >25% increase in NMNAT2 luciferase activity at ≤1 μM.)
O=C1CC(c2cn(Cc3cccc(F)c3)c3ccccc23)CCN1 (stereo not shown) [BC20339]	+ (“+” >25% increase in NMNAT2 luciferase activity at >25 μM.)
COc1ccccc1CNC(=O)[C@H]1C[C@@H]1c1cn(Cc2ccc(C)cc2)c2ccccc12 (racemic) [BC20298]	+ (“+” >25% increase in NMNAT2 luciferase activity at >25 μM.)
Cc1cccc(CN2CCC(c3cn(Cc4cccc(F)c4)c4ccccc34)CC2=O)c1 (stereo not shown) [BC20321]	+ (“+” >25% increase in NMNAT2 luciferase activity at >25 μM.)
O=C(CCCc1cn(Cc2cccc(F)c2)c2ccccc12)NCc1ccco1 [BC20135]	++ (“++” >25% increase in NMNAT2 luciferase activity at >1 μM ≤25 μM.)
Cc1cccc(Cn2cc(CCCC(=O)NCc3ccco3)c3ccccc32)c1 [BC20163]	+++ (“+++” >25% increase in NMNAT2 luciferase activity at ≤1 μM.)
Cc1c(C)n(Cc2cccc(F)c2)c2ccc(C(=O)NCC3CCCO3)cc12 (stereo not shown) [BC20110]	+++ (“+++” >25% increase in NMNAT2 luciferase activity at ≤1 μM.)
O=C(CCCc1cn(Cc2cccc(F)c2)c2ccccc12)NCc1ccncc1 [BC20148]	++ (“++” >25% increase in NMNAT2 luciferase activity at >1 μM ≤25 μM.)
CCCCN(CC)Cc1ccc(CNC(=O)C2CCCc3c2c2ccccc2n3Cc2ccc(C)cc2)o1 (stereo not shown) [BC20391]	++ (“++” >25% increase in NMNAT2 luciferase activity at >1 μM ≤25 μM.)
Cc1ccccc1CCN1CCc2cn(Cc3cccc(F)c3)c3cccc(c23)C1=O [BC20314]	+ (“+” >25% increase in NMNAT2 luciferase activity at >25 μM.)
COc1ccccc1CNC(=O)C1CCc2c(c3ccccc3n2Cc2cccc(F)c2)C1 (stereo not shown) [BC20225]	+ (“+” >25% increase in NMNAT2 luciferase activity at >25 μM.)
Cc1ccc(CNC(=O)C2CCc3c(c4ccccc4n3CC(=O)NCc3ccco3)C2)o1 (stereo not shown) [BC20236]	++ (“++” >25% increase in NMNAT2 luciferase activity at >1 μM ≤25 μM.)
Cc1ccc(C)c(Cn2cc3c4c(cccc42)C(=O)N(Cc2cccc(F)c2)CC3)c1 [BC20270]	+ (“+” >25% increase in NMNAT2 luciferase activity at >25 μM.)
Cc1cccc(CNC(=O)[C@H]2C[C@@H]2c2c(C)n(Cc3cc(C)ccc3C)c3ccccc23)c1 (racemic) [BC20303]	+ (“+” >25% increase in NMNAT2 luciferase activity at >25 μM.)
Cc1cccc(NC(=O)C2CCc3c(c4ccccc4n3Cc3cccc(F)c3)C2)c1C (stereo not shown) [BC20229]	+ (“+” >25% increase in NMNAT2 luciferase activity at >25 μM.)
